This is an account of results in US10525041B2, “Fluoroalkyl-substituted aryltriazole derivatives and uses thereof” (BAYER PHARMA AKTIENGESELLSCHAFT, priority 2016, dated 2020).

The target of one assay is T1, human V1a receptor (Homo sapiens, UniProt P37288).
T1 construct: expressed in transfected cells; host or cells: CHO K1 (ATCC), also stably transfected with a modified aequorin
As to the kind of experiment: Cellular in vitro assay for vasopressin receptor activity, V1a cell line (aequorin luminescence). Type of assay: cell-based. The conditions noted are these: for IC50: CHO cell line transfected with human V1a receptor, agonist [Arg8]-vasopressin at EC50 concentration, read-out: IC50hV1a; for ratio IC50 hV2/hV1a: ratio of the IC50 on human V2 to the IC50 on human V1a. The procedure, abridged:
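CHO K1 cells stably expressing human V1a receptor with aequorin photoprotein, loaded overnight with coelenterazine. Compounds preincubated 10 min at various concentrations, then challenged with [Arg^8]-vasopressin at EC50 concentration. Calcium-driven luminescence read immediately; IC50 values derived.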

A further assay deals with T2, human V2 receptor (Homo sapiens, UniProt P30518).
T2 construct: expressed in transfected cells; host or cells: CHO K1 (ATCC) line expressing firefly luciferase under a CRE-responsive promoter
Kind of assay: Cellular in vitro assay for vasopressin receptor activity, V2 cell line (CRE-luciferase). Type of assay: cell-based. The note with it: CHO cell line transfected with human V2 receptor; agonist [Arg8]-vasopressin at EC50 concentration, 3 hours; read-out: IC50hV2.

T1 sequence (P37288 whole entry): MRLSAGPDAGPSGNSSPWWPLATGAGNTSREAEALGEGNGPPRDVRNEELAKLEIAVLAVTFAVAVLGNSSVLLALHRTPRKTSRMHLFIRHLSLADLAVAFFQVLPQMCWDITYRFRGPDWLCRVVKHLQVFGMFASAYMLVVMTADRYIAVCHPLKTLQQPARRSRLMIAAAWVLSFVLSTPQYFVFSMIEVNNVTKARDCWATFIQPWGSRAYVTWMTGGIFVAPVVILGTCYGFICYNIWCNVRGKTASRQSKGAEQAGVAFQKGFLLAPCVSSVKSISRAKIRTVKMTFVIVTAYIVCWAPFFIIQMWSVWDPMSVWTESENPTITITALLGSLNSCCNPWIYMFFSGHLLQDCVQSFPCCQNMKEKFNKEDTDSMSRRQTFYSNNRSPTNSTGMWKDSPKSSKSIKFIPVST
T2 sequence (P30518 whole entry): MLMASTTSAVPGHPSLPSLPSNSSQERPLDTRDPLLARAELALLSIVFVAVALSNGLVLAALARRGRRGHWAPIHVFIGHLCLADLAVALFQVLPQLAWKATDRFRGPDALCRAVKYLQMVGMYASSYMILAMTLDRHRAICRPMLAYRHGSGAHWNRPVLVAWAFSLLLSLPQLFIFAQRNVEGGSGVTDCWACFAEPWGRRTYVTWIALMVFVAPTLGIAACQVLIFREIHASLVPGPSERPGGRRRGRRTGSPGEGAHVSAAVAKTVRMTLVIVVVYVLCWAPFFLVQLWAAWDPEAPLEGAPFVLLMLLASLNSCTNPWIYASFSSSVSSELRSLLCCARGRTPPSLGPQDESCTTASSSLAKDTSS

With `CC(F)(F)c1nc(Cn2nc(-c3ccc(Cl)cc3)n(C[C@H](O)C(F)(F)F)c2=O)nn1-c1cccc(F)c1` [Example 56, 5-(4-Chlorophenyl)-2-{[5-(1,1-difluoroethyl)-1-(3-fluorophenyl)-1H-1,2,4-triazol-3-yl]methyl}-4-[(2S)-3,3,3-trifluoro-2-hydroxypropyl]-2,4-dihydro-3H-1,2,4-triazol-3-one], the IC50 was determined as 15.5 nM on human V1a receptor and 5.25 nM at human V2 receptor. Also, the “ratio IC50 hV2/hV1a” value at human V1a receptor was determined as 0.3.

With `CC(F)c1nc(Cn2nc(-c3ccc(Cl)cc3)n(C[C@H](O)C(F)(F)F)c2=O)nn1-c1c(F)cccc1F` (mixture of isomers) [Example 45, 5-(4-Chlorophenyl)-2-({1-(2,6-difluorophenyl)-5-[1-fluoroethyl]-1H-1,2,4-triazol-3-yl}methyl)-4-[(2S)-3,3,3-trifluoro-2-hydroxypropyl]-2,4-dihydro-3H-1,2,4-triazol-3-one], at human V1a receptor, the IC50 was determined as 2.2 nM and the “ratio IC50 hV2/hV1a” value came out at 1.3. For the same molecule, on human V2 receptor, the IC50 is 2.97 nM.

As for `CCOc1ccccc1-n1nc(Cn2nc(-c3ccc(Cl)cc3)n(C[C@H](O)C(F)(F)F)c2=O)nc1C(C)F` (mixture of isomers) [Example 42, 5-(4-Chlorophenyl)-2-({1-(2-ethoxyphenyl)-5-[1-fluoroethyl]-1H-1,2,4-triazol-3-yl}methyl)-4-[(2S)-3,3,3-trifluoro-2-hydroxypropyl]-2,4-dihydro-3H-1,2,4-triazol-3-one], at human V1a receptor, the IC50 stood at 1.9 nM and the “ratio IC50 hV2/hV1a” value came to 2.6. Moreover, the IC50 on human V2 receptor is 4.95 nM.

Take `CC(F)(F)c1nc(Cn2nc(-c3ccc(Cl)cc3)n(C[C@H](O)C(F)(F)F)c2=O)nn1-c1ccccc1Cl` [Example 53, 5-(4-Chlorophenyl)-2-{[1-(2-chlorophenyl)-5-(1,1-difluoroethyl)-1H-1,2,4-triazol-3-yl]methyl}-4-[(2S)-3,3,3-trifluoro-2-hydroxypropyl]-2,4-dihydro-3H-1,2,4-triazol-3-one]: on human V1a receptor, the IC50 turned out to be 0.4 nM and the “ratio IC50 hV2/hV1a” value is listed as 2.9. The IC50 at human V2 receptor worked out at 1.16 nM.

`CC(F)c1nc(Cn2nc(-c3ccc(Cl)cc3)n(C[C@H](O)C(F)(F)F)c2=O)nn1-c1cccc(F)c1` (single isomer, unassigned) [Example 14]: on human V1a receptor, the IC50 is 9.7 nM and the “ratio IC50 hV2/hV1a” value was found to be 0.2. Besides, the IC50 at human V2 receptor came to 1.73 nM.

Take `CC(F)c1nc(Cn2nc(-c3ccc(Cl)cc3)n(C[C@H](O)C(F)(F)F)c2=O)nn1-c1ccccc1Cl` (single isomer, unassigned) [Example 2]: on human V1a receptor, the IC50 came to 0.36 nM and the “ratio IC50 hV2/hV1a” value stood at 3.8. For the same molecule, the IC50 on human V2 receptor was found to be 1.34 nM.

With `Cc1ccccc1-n1nc(Cn2nc(-c3ccc(Cl)cc3)n(C[C@H](O)C(F)(F)F)c2=O)nc1C(C)F` (single isomer, unassigned) [Example 35], on human V1a receptor, the IC50 came to 0.36 nM and the “ratio IC50 hV2/hV1a” value is on record as 0.5. In addition, at human V2 receptor, the IC50 worked out at 0.17 nM.

With `CC(F)c1nc(Cn2nc(-c3ccc(Cl)cc3)n(C[C@H](O)C(F)(F)F)c2=O)nn1-c1cnccc1C(F)(F)F` (single isomer, unassigned) [Example 9], at human V1a receptor, the IC50 is 1 nM and the “ratio IC50 hV2/hV1a” value amounted to 7.1. Besides, at human V2 receptor, the IC50 came out at 7.05 nM.
